The text below walks through data of PubChem BioAssay (NCI).

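The compound was tested at five concentrations on cells cultured in 96-well plates, with a 48-hour exposure period. TGI marks complete inhibition of growth.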

Some test systems named below: BT-549 breast; MALME-3M melanoma; MDA-MB-231 breast; MDA-MB-435; NCI/ADR-RES ovarian; SK-OV-3 ovarian; SR leukemia; SNB-75 CNS.
Holding throughout (experiment): DTP human tumour cell line panel, 48 h

For `COc1ccc(C2SCC(=O)N2c2ccc(-c3ccc(-n4c(-c5ccccc5)nc5ccccc5c4=O)cc3)cc2)cc1` (stereo not given), the TGI in the test on BT-549 breast, in the test with MALME-3M melanoma, with MDA-MB-231 breast, in the test on MDA-MB-435, in the test on NCI/ADR-RES ovarian and in the test on SK-OV-3 ovarian was more than 100 µM each time. The TGI in the test with SR leukemia is more than 100 µM.
With `COc1cc(OC)c2c(c1OC)OCC(Cc1ccc(O)cc1)C2=O` (stereo not given), the TGI in the test on MALME-3M melanoma, with MDA-MB-231 breast, in the test with MDA-MB-435, with NCI/ADR-RES ovarian, in the test with SK-OV-3 ovarian and in the test with SNB-75 CNS was more than 25 µM in each case. In the test with SR leukemia, this compound displayed a TGI of more than 25 µM.
Take `Cc1ccc(/C=C/C(=O)c2c([O-])on[n+]2-c2ccccc2)cc1`: the TGI in the test on BT-549 breast is 6.09 µM; in the test on MALME-3M melanoma, 98.3 µM; with MDA-MB-231 breast, more than 75.2 µM; in the test on NCI/ADR-RES ovarian it was 7.11 µM; in the test with SK-OV-3 ovarian it was more than 100 µM; with SNB-75 CNS, 4.87 µM. Besides, the TGI in the test on SR leukemia was more than 27.5 µM.
For `CC[N+]1(C)CCC(O)(c2ccc(Cl)cc2)C(C(=O)c2ccc(Cl)cc2)C1` (stereo not given), the TGI with MALME-3M melanoma came to 25.6 µM; in the test on MDA-MB-231 breast, 40.5 µM; in the test on MDA-MB-435 it was 40.6 µM; with NCI/ADR-RES ovarian, 57.1 µM; in the test on SK-OV-3 ovarian, 27.7 µM; in the test on SR leukemia, 36.4 µM.
On to `O=C(N/N=C1\CCc2ccccc2C1)N/N=C1\CCc2ccccc2C1`, for which the TGI with BT-549 breast, in the test with MALME-3M melanoma, in the test on MDA-MB-231 breast, with MDA-MB-435, in the test with NCI/ADR-RES ovarian and with SR leukemia was more than 10 µM in each case.
As to `COc1ccc(/C=C2\CSC/C(=C\c3ccc(OC)c(OC)c3OC)C2=O)c(OC)c1OC`, the total growth inhibition concentration (TGI) in the test with BT-549 breast is more than 100 µM; in the test with MALME-3M melanoma it was 27.6 µM; with MDA-MB-231 breast, more than 100 µM; in the test on NCI/ADR-RES ovarian, more than 100 µM; with SK-OV-3 ovarian, more than 100 µM; in the test with SR leukemia it was 80.4 µM.
For the compound `COc1cc(N=NN(C)C)c(C(C)c2c3cc(OC)c(OC)cc3cc[n+]2C)cc1OC` (stereo not given), the TGI in the test on BT-549 breast is more than 100 µM; with MALME-3M melanoma it was 87.5 µM; in the test with MDA-MB-231 breast, 77 µM; with MDA-MB-435, more than 100 µM; in the test on NCI/ADR-RES ovarian, more than 100 µM; in the test with SK-OV-3 ovarian it was more than 100 µM. For the same compound, in the test on SNB-75 CNS, the TGI was more than 100 µM.
For `C=C=C(C)[Si](C)(C)C`, the TGI in the test on MALME-3M melanoma, with MDA-MB-231 breast, in the test on MDA-MB-435, in the test with NCI/ADR-RES ovarian, in the test on SK-OV-3 ovarian and with SNB-75 CNS was more than 100 µM in each case. This compound registered a TGI in the test on SR leukemia of more than 100 µM.
Consider `NNC(=O)CNC(=O)CSc1nnc(COc2ccc(Cl)cc2)n1-c1ccccc1`, for which the TGI in the test with MALME-3M melanoma, in the test with MDA-MB-231 breast, in the test with MDA-MB-435, with NCI/ADR-RES ovarian, in the test on SK-OV-3 ovarian and in the test on SNB-75 CNS was more than 100 µM in each case.
Consider `O=P(O)(O)C(O)/C=C/c1ccccc1` (stereo not given), for which the TGI in the test on BT-549 breast, in the test on MALME-3M melanoma, in the test with MDA-MB-231 breast, in the test with MDA-MB-435, in the test on NCI/ADR-RES ovarian and in the test on SK-OV-3 ovarian was more than 100 µM in each case. The compound also had a TGI with SNB-75 CNS of more than 100 µM.
Consider `COC(=O)C(CCC1C=CCC1)N=Cc1ccccc1` (stereo not given), for which the TGI with BT-549 breast, in the test on MDA-MB-231 breast, in the test with MDA-MB-435, with NCI/ADR-RES ovarian, with SK-OV-3 ovarian and with SNB-75 CNS was more than 100 µM throughout. The same compound showed a TGI in the test with SR leukemia of more than 100 µM.
As to `C=C(C=O)c1c2c(nc3ccccc13)C(=O)c1ccccc1C2=O`, the TGI in the test on BT-549 breast was 3.57 µM; with MALME-3M melanoma, 3.27 µM; in the test with MDA-MB-231 breast, 3.27 µM; in the test with MDA-MB-435, more than 100 µM; with SK-OV-3 ovarian, 12.8 µM; in the test on SNB-75 CNS, 2.18 µM.
Turning to `Cc1cc2[nH]c3c(C#N)c(-c4ccccc4)c(N=Nc4cccc(C(F)(F)F)c4)c(=O)n3c2cc1C`, the TGI with BT-549 breast, in the test on MALME-3M melanoma, with MDA-MB-231 breast, with MDA-MB-435, in the test with NCI/ADR-RES ovarian and with SK-OV-3 ovarian was more than 100 µM each time. Moreover, in the test with SNB-75 CNS, the TGI is more than 100 µM.
For `CCOP(=O)(Nc1ccc(-c2ccccc2)cc1)OCC`, the TGI with BT-549 breast, in the test with MALME-3M melanoma, with MDA-MB-231 breast, with MDA-MB-435, in the test on NCI/ADR-RES ovarian and in the test on SK-OV-3 ovarian was more than 100 µM in each case. For the same compound, the TGI in the test with SNB-75 CNS is more than 100 µM.
For the compound `Cc1ccc2c(c1)NC(=O)CCSSCCC(=O)N2`, the TGI in the test on BT-549 breast, in the test on MALME-3M melanoma, in the test with MDA-MB-231 breast, in the test on MDA-MB-435, in the test with NCI/ADR-RES ovarian and with SK-OV-3 ovarian was more than 100 µM in each case. In the test with SR leukemia, this compound came in with a TGI of more than 100 µM.
As for `O=C(O)CSc1cc(-c2ccccc2)nc2ccccc12`, the TGI is more than 100 µM in the test on BT-549 breast; more than 100 µM with MALME-3M melanoma; more than 100 µM in the test on MDA-MB-231 breast; 38 µM with MDA-MB-435; more than 100 µM in the test with NCI/ADR-RES ovarian; more than 100 µM in the test on SR leukemia.
Turning to `O=C(O)CSCC(=O)Nc1ccc2cccc3c2c1CC3`, the TGI in the test with BT-549 breast, with MALME-3M melanoma, in the test on MDA-MB-231 breast, with MDA-MB-435, in the test with NCI/ADR-RES ovarian and with SNB-75 CNS was more than 100 µM in each case.
Take `O=C1CCCc2c1c1c(n2Cc2ccccc2)-c2ccccc2C1=O`: the total growth inhibition concentration (TGI) was 55.7 µM with BT-549 breast; 38.1 µM in the test with MALME-3M melanoma; 42.9 µM in the test on MDA-MB-231 breast; 38.2 µM with MDA-MB-435; 50.1 µM with NCI/ADR-RES ovarian; more than 100 µM in the test with SK-OV-3 ovarian. In the test on SNB-75 CNS, the TGI was more than 100 µM.
As for `CC(=O)Nc1ncc(Sc2ccccc2C(=O)O)s1`, the TGI in the test with BT-549 breast, with MDA-MB-231 breast, in the test on MDA-MB-435, in the test on NCI/ADR-RES ovarian, in the test with SNB-75 CNS and with SR leukemia was more than 100 µM each time.

What is called TGI is the concentration at which net growth stops. Read a high TGI as lower sensitivity of the cells.
